The source of these data is PubChem BioAssay AID212 (DTP/NCI, 2004).

This test concerns BDF1 mice, colon carcinoma 38 sc, T/C %. Kind of test: NCI In Vivo Anticancer Drug Screen. Data for tumor model Colon Carcinoma 38 (subcutaneous) in B6D2F1 (BDF1) mice. The protocol: The antitumor activity of compounds was measured in mice bearing transplantable tumors. Survival or tumor size were measured and the results are expressed as the measurement made in the treated group (T) divided by the measurement made in the vehicle treated control group (C). The tumor model used in this assay is Colon Carcinoma 38 (subcutaneous) in B6D2F1 (BDF1) mice

[1] abbreviates: endpoint: median tumor weight (est.), dose: 25.0 mg/kg/injection, schedule: Q07DX002 (ip), vehicle: Klucel (hydroxypropylcellulose) (HPC), higher = larger tumour.
The mark [2] stands for this setting: endpoint: median tumor weight (est.), dose: 25.0 mg/kg/injection, schedule: Q07DX002 (ip), vehicle: saline, higher = larger tumour.
[3] abbreviates: endpoint: median tumor weight (est.), dose: 100.0 mg/kg/injection, schedule: Q07DX002 (ip), vehicle: saline, higher = larger tumour.
Setting [4] is: endpoint: median tumor weight (est.), dose: 12.5 mg/kg/injection, schedule: Q07DX002 (ip), vehicle: saline, higher = larger tumour.
Where [5] appears, read: endpoint: median tumor weight (est.), dose: 200.0 mg/kg/injection, schedule: Q07DX002 (ip), vehicle: saline, higher = larger tumour.
Setting [6] is: endpoint: median tumor weight (est.), dose: 400.0 mg/kg/injection, schedule: Q07DX002 (ip), vehicle: saline, higher = larger tumour.
Where [7] appears, read: endpoint: median tumor weight (est.), dose: 10.0 mg/kg/injection, schedule: Q07DX002 (ip), vehicle: Klucel (hydroxypropylcellulose) (HPC), higher = larger tumour.

Where “and” joins values, the source holds several entries; their conditions need not be identical. Equal values may be shown once. Inconclusive results are not listed. *1 amine or outer side, *2 acyl side, *3 side chain or, on linkers, in order; H or OH if unused. Where a SMILES comes first, the peptide text is derived from it. [ ]: non-standard residue; d: D form. The star is where a group is joined. X2 = CCC(=O)CC1CC(C)CC(C(=O)[*:2])N1[*:1]; X1 = CCCCCCCCC(C)C(=O)*; Aib = CC(C)(N)C(=O)O; X3 = CC(CN(C)CCO)N*

Regarding `CCCCCCCCCCCCCCCCCC(=O)OCC(=O)OCC(=O)[C@]1(O)Cc2c(O)c3c(c(O)c2[C@@H](OC2CC(N)C(O)C(C)O2)C1)C(=O)c1c(OC)cccc1C3=O` (stereo partly specified), the T/C was 111 % of control (endpoint: median survival time, dose: 11.5 mg/kg/injection, schedule: Q07DX002 (iv), vehicle: saline, higher = longer survival); 70 % of control (endpoint: median tumor weight (est.), dose: 1.69 mg/kg/injection, schedule: Q07DX002 (ip), vehicle: saline with Tween-80, higher = larger tumour); 93 % of control (endpoint: median tumor weight (est.), dose: 3.38 mg/kg/injection, schedule: Q07DX002 (ip), vehicle: saline with Tween-80, higher = larger tumour); 79 % of control and 89 % of control and 97 % of control (endpoint: median tumor weight (est.), dose: 6.75 mg/kg/injection, schedule: Q07DX002 (ip), vehicle: saline with Tween-80, higher = larger tumour); 18 % of control and 37 % of control (endpoint: median tumor weight (est.), dose: 27.0 mg/kg/injection, schedule: Q07DX002 (ip), vehicle: saline with Tween-80, higher = larger tumour).

As to `CC[C@]1(O)C[C@H]2CN(CCc3c([nH]c4ccccc34)[C@@](C(=O)OC)(c3cc4c(cc3OC)N(C)[C@H]3[C@@](O)(C(=O)OC)[C@H](OC(C)=O)[C@]5(CC)C=CCN6CC[C@]43[C@@H]65)C2)C1`, for the setting “endpoint: median tumor weight (est.), dose: 4.0 mg/kg/injection, schedule: Q07DX002 (ip), vehicle: saline, higher = larger tumour”, the T/C is 20 % of control and 22 % of control.

As for `O=NN(CCCl)C(=O)NC1CCC(=O)NC1=O` (stereo unspecified), the T/C (endpoint: median tumor weight (est.), dose: 2.0 mg/kg/injection, schedule: Q07DX003 (ip), vehicle: saline with Tween-80, higher = larger tumour) was 82 % of control; the T/C (endpoint: median tumor weight (est.), dose: 4.0 mg/kg/injection, schedule: Q07DX003 (ip), vehicle: saline with Tween-80, higher = larger tumour) was 93 % of control; the T/C (endpoint: median tumor weight (est.), dose: 8.0 mg/kg/injection, schedule: Q07DX003 (ip), vehicle: saline with Tween-80, higher = larger tumour) was 76 % of control; the T/C (endpoint: median tumor weight (est.), dose: 13.0 mg/kg/injection, schedule: Q07DX003 (ip), vehicle: saline with Tween-80, higher = larger tumour) is 57 % of control; the T/C (endpoint: median tumor weight (est.), dose: 20.0 mg/kg/injection, schedule: Q07DX003 (ip), vehicle: saline with Tween-80, higher = larger tumour) is 12 % of control.

Consider `NC(=O)c1ncn2c(=O)n(CCCl)nnc12`, for which the T/C is, setting by setting: (endpoint: median tumor weight (est.), dose: 6.0 mg/kg/injection, schedule: Q07DX002 (ip), vehicle: saline, higher = larger tumour) 110 % of control; (endpoint: median tumor weight (est.), dose: 6.25 mg/kg/injection, schedule: Q07DX002 (ip), vehicle: Klucel (hydroxypropylcellulose) (HPC), higher = larger tumour) 43 % of control and 65 % of control; (endpoint: median tumor weight (est.), dose: 6.25 mg/kg/injection, schedule: Q07DX002 (ip), vehicle: saline, higher = larger tumour) 47 % of control; (endpoint: median tumor weight (est.), dose: 12.0 mg/kg/injection, schedule: Q07DX002 (ip), vehicle: saline, higher = larger tumour) 51 % of control; (endpoint: median tumor weight (est.), dose: 12.5 mg/kg/injection, schedule: Q07DX002 (ip), vehicle: Klucel (hydroxypropylcellulose) (HPC), higher = larger tumour) 22 % of control and 45 % of control; under setting [1], 21 % of control and 36 % of control. Besides, the T/C by setting is: under setting [2], 55 % of control and 59 % of control; (endpoint: median tumor weight (est.), dose: 50.0 mg/kg/injection, schedule: Q07DX002 (ip), vehicle: Klucel (hydroxypropylcellulose) (HPC), higher = larger tumour) 2 % of control; under setting [3], 2 % of control.

As to `NC(=O)c1[nH]nc(C2OC(CO)C(O)C2O)c1O` (stereo unspecified), the T/C (endpoint: median survival time, dose: 0.75 mg/kg/injection, schedule: Q04DX004 (ip), vehicle: saline, higher = longer survival) is 77 % of control and 79 % of control; the T/C (endpoint: median survival time, dose: 1.5 mg/kg/injection, schedule: Q04DX004 (ip), vehicle: saline, higher = longer survival) was 90 % of control and 105 % of control; the T/C (endpoint: median survival time, dose: 3.0 mg/kg/injection, schedule: Q04DX004 (ip), vehicle: saline, higher = longer survival) was 63 % of control and 65 % of control; the T/C (endpoint: median survival time, dose: 6.0 mg/kg/injection, schedule: Q04DX004 (ip), vehicle: saline, higher = longer survival) was 59 % of control; the T/C (endpoint: median survival time, dose: 12.0 mg/kg/injection, schedule: Q04DX004 (ip), vehicle: saline, higher = longer survival) was 43 % of control; the T/C (endpoint: median tumor weight (est.), dose: 0.31 mg/kg/injection, schedule: Q07DX003 (ip), vehicle: saline, higher = larger tumour) is 117 % of control. For the same compound, the T/C (endpoint: median tumor weight (est.), dose: 0.62 mg/kg/injection, schedule: Q07DX003 (ip), vehicle: saline, higher = larger tumour) is 90 % of control; the T/C (endpoint: median tumor weight (est.), dose: 1.25 mg/kg/injection, schedule: Q07DX003 (ip), vehicle: saline, higher = larger tumour) was 97 % of control; the T/C (endpoint: median tumor weight (est.), dose: 4.32 mg/kg/injection, schedule: Q04DX004 (ip), vehicle: saline, higher = larger tumour) was 81 % of control; the T/C (endpoint: median tumor weight (est.), dose: 5.0 mg/kg/injection, schedule: Q07DX002 (ip), vehicle: saline, higher = larger tumour) was 100 % of control; the T/C (endpoint: median tumor weight (est.), dose: 5.0 mg/kg/injection, schedule: Q07DX003 (ip), vehicle: saline, higher = larger tumour) is 93 % of control; the T/C (endpoint: median tumor weight (est.), dose: 7.2 mg/kg/injection, schedule: Q04DX004 (ip), vehicle: saline, higher = larger tumour) is 61 % of control. In addition, the T/C is, setting by setting: (endpoint: median tumor weight (est.), dose: 10.0 mg/kg/injection, schedule: Q07DX002 (ip), vehicle: saline, higher = larger tumour) 86 % of control; (endpoint: median tumor weight (est.), dose: 10.0 mg/kg/injection, schedule: Q07DX003 (ip), vehicle: saline, higher = larger tumour) 82 % of control; (endpoint: median tumor weight (est.), dose: 12.0 mg/kg/injection, schedule: Q04DX004 (ip), vehicle: saline, higher = larger tumour) 17 % of control.

In the case of `COc1cc(Cl)ccc1C`, the T/C runs as follows: (endpoint: median tumor weight (est.), dose: 12.5 mg/kg/injection, schedule: Q07DX002 (ip), vehicle: saline with Tween-80, higher = larger tumour) 99 % of control; (endpoint: median tumor weight (est.), dose: 25.0 mg/kg/injection, schedule: Q07DX002 (ip), vehicle: saline with Tween-80, higher = larger tumour) 71 % of control; (endpoint: median tumor weight (est.), dose: 50.0 mg/kg/injection, schedule: Q07DX002 (ip), vehicle: saline with Tween-80, higher = larger tumour) 68 % of control; (endpoint: median tumor weight (est.), dose: 100.0 mg/kg/injection, schedule: Q07DX002 (ip), vehicle: saline with Tween-80, higher = larger tumour) 82 % of control; (endpoint: median tumor weight (est.), dose: 200.0 mg/kg/injection, schedule: Q07DX002 (ip), vehicle: saline with Tween-80, higher = larger tumour) 89 % of control; (endpoint: median tumor weight (est.), dose: 400.0 mg/kg/injection, schedule: Q07DX002 (ip), vehicle: saline with Tween-80, higher = larger tumour) 89 % of control.

Turning to `CCCCCCCCCCCCCCCC(=O)Nc1ccn(C2OC(CO)C(O)C2O)c(=O)n1` (stereo unspecified), the T/C was 41 % of control under setting [4]; 88 % of control under setting [2]; 50 % of control (endpoint: median tumor weight (est.), dose: 50.0 mg/kg/injection, schedule: Q07DX002 (ip), vehicle: saline, higher = larger tumour); 5 % of control under setting [3]; 16 % of control under setting [5]; 1 % of control under setting [6].

Take `Cc1[nH]c(=O)[nH]c(=O)c1N(CCF)CCCl`: the T/C runs as follows: (endpoint: median tumor weight (est.), dose: 16.0 mg/kg/injection, schedule: Q07DX002 (ip), vehicle: Klucel (hydroxypropylcellulose) (HPC), higher = larger tumour) 69 % of control and 71 % of control; (endpoint: median tumor weight (est.), dose: 32.0 mg/kg/injection, schedule: Q07DX002 (ip), vehicle: Klucel (hydroxypropylcellulose) (HPC), higher = larger tumour) 67 % of control and 79 % of control and 82 % of control; (endpoint: median tumor weight (est.), dose: 64.0 mg/kg/injection, schedule: Q07DX002 (ip), vehicle: Klucel (hydroxypropylcellulose) (HPC), higher = larger tumour) 38 % of control; (endpoint: median tumor weight (est.), dose: 64.0 mg/kg/injection, schedule: Q07DX003 (ip), vehicle: Klucel (hydroxypropylcellulose) (HPC), higher = larger tumour) 21 % of control and 28 % of control.

As for `COc1ccc(-c2cc(=O)c3cccc(CC(=O)O)c3o2)cc1OC`, the T/C was 106 % of control under setting [1]; 117 % of control (endpoint: median tumor weight (est.), dose: 100.0 mg/kg/injection, schedule: Q07DX002 (ip), vehicle: Klucel (hydroxypropylcellulose) (HPC), higher = larger tumour); 82 % of control (endpoint: median tumor weight (est.), dose: 200.0 mg/kg/injection, schedule: Q07DX002 (ip), vehicle: Klucel (hydroxypropylcellulose) (HPC), higher = larger tumour).

Turning to `O=c1[nH]c(=O)c2nc(-c3cccnc3)cnc2[nH]1`, the T/C reads like this: under setting [4], 116 % of control; under setting [2], 78 % of control and 81 % of control; under setting [5], 80 % of control and 103 % of control; under setting [6], 95 % of control and 97 % of control.

As for `CCCCCCCCC(C)C(=O)N1CCCC1C(=O)N1C(CC(=O)CC)CC(C)CC1C(=O)NC(C)C(=O)NC(C)(C)C(=O)NC(C)(C)C(=O)NC(C(=O)NC(C)C(=O)NC(C)(C)C(=O)NC(C)(C)C(=O)NC(C)CN(C)CCO)C(C)CC` (stereo unspecified) (X1-P[X2]A[Aib][Aib]IA[Aib][Aib]-X3; configuration not given here), the T/C by setting is: (endpoint: median tumor weight (est.), dose: 0.31 mg/kg/injection, schedule: Q07DX002 (ip), vehicle: Klucel (hydroxypropylcellulose) (HPC), higher = larger tumour) 123 % of control; (endpoint: median tumor weight (est.), dose: 1.25 mg/kg/injection, schedule: Q07DX002 (ip), vehicle: Klucel (hydroxypropylcellulose) (HPC), higher = larger tumour) 86 % of control and 91 % of control; (endpoint: median tumor weight (est.), dose: 2.5 mg/kg/injection, schedule: Q07DX002 (ip), vehicle: Klucel (hydroxypropylcellulose) (HPC), higher = larger tumour) 119 % of control; (endpoint: median tumor weight (est.), dose: 5.0 mg/kg/injection, schedule: Q07DX002 (ip), vehicle: Klucel (hydroxypropylcellulose) (HPC), higher = larger tumour) 103 % of control and 104 % of control; under setting [7], 102 % of control.

For the compound `NC(=O)Nc1cc(NC(N)=O)cc(N(CCCl)CCCl)c1`, the T/C by setting is: under setting [7], 89 % of control; (endpoint: median tumor weight (est.), dose: 20.0 mg/kg/injection, schedule: Q07DX002 (ip), vehicle: Klucel (hydroxypropylcellulose) (HPC), higher = larger tumour) 68 % of control; (endpoint: median tumor weight (est.), dose: 40.0 mg/kg/injection, schedule: Q07DX002 (ip), vehicle: Klucel (hydroxypropylcellulose) (HPC), higher = larger tumour) 96 % of control.
